Measurements as given in patent US20260317340A1, “COMPOUNDS, COMPOSITIONS, AND METHODS OF TREATING DISORDERS” (Chengdu Anticancer Bioscience, Ltd., priority 2023, published 2026).
Like-named read-outs stand apart in the source and are kept apart here.

Tests used:
[1] = system: RPE-Neo or RPE-MYC or RPE-MYC expressing an EGFP-Histone 2B fusion protein; test: Phenotypic screening assay: arrest in mitosis, change in DNA content (polyploidy), cell death; type: cell-based; conditions: 20 nM to 20 μM, 24, 48 or 72 hours
Protocol: (§1) Human cancer cell lines were obtained from ATCC and cultured in DMEM (Gibco, Cleveland, TN, USA) supplemented with 5% fetal bovine serum (Gibco), penicillin (100 U/mL)-streptomycin (100 μg/mL) (Gibco, Cat. No. 15140-122), 2 mM L-glutamine (Gibco, 200 mM solution, Cat. No. 25030081), and 1 mM sodium pyruvate (Gibco, 100 mM solution, Cat. No. 11360070) at 37° C. in a humidified incubator that was maintained at 5% CO2.
Screening was conducted as described before (Li et al. 2019). Briefly, RPE-Neo or RPE-MYC or RPE-MYC expressing an EGFP-Histone 2B fusion protein were passaged as batches of 96-well plates, 18-24 hours before exposure to the chemical compounds of the present disclosure at concentrations from 20 nM to 20 μM. At 24, 48 or 72 hours after initiation of treatment, cells were analyzed for either an arrest in mitosis or a change in DNA content by GE IN-Cell Analyzer 2000. MTT assays of cellular proliferation were performed as previously described (Li et al. 2019).
(§2) As set forth in table 2 below, an values of greater than or equal to 1 nM and less than or equal to 1.0 μM is marked “A”; a value greater than 1.00 μM and less than or equal to 10.0 μM is marked “B”; a value greater than 10.0 μM and less than or equal to 30.0 μM is marked “C”; and a value greater than 30.0 μM and less than 1000 μM is marked “D.”

[2] = system: RPE-Neo or RPE-MYC cells; test: MTT assay of cellular proliferation (proliferative arrest); type: cell-based; conditions: read-out: Min. Effective conc. for Proliferative arrest (>50%)
Protocol: as §1
Screening was conducted as described before (Li et al. 2019). Briefly, RPE-Neo or RPE-MYC or RPE-MYC expressing an EGFP-Histone 2B fusion protein were passaged as batches of 96-well plates, 18-24 hours before exposure to the chemical compounds of the present disclosure at concentrations from 20 nM to 20 μM. At 24, 48 or 72 hours after initiation of treatment, cells were analyzed for either an arrest in mitosis or a change in DNA content by GE IN-Cell Analyzer 2000. MTT assays of cellular proliferation were performed as previously described (Li et al. 2019). […]
as §2

[3] = read-out: Min. Effective conc. for Along with Cell Death
[4] = ≥5%, read-out: Min. Effective conc. for Mitotic Arrest (≥5%)
[5] = ≥5%, read-out: Min. Effective conc. for Polyploidy (≥5%)

Measured: minimal effective concentration

Cc1cnc(C2=Cc3ccc(-c4cnn(C)c4)cc3N(Cc3ccc(C)c(F)c3)C(=O)C2)o1 [Compound 20, 1-(3-fluoro-4-methylbenzyl)-8-(1-methyl-1H-pyrazol-4-yl)-4-(5-methyloxazol-2-yl)-1,3-dihydro-2H-benzo[b]azepin-2-one]
0.001 to 1 µM: [1]; [3] | [1]; [4] | [1]; [5] | [2]

Cc1cnc(C2=Cc3ccc(-c4cnn(C5CC5)c4)cc3N(Cc3ccc(C)c(F)c3)C(=O)C2)o1 [Compound 21, 8-(1-Cyclopropyl-1H-pyrazol-4-yl)-1-(3-fluoro-4-methylbenzyl)-4-(5-methyloxazol-2-yl)-1,3-dihydro-2H-benzo[b]azepin-2-one]
0.001 to 1 µM: [1]; [3] | [1]; [4] | [1]; [5] | [2]

Cc1cnc(C2=Cc3ccc(-c4cn[nH]c4)cc3N(Cc3ccc(C)c(F)c3)C(=O)C2)o1 [Compound 22, 1-(3-fluoro-4-methylbenzyl)-4-(5-methyloxazol-2-yl)-8-(1H-pyrazol-4-yl)-1,3-dihydro-2H-benzo[b]azepin-2-one]
0.001 to 1 µM: [1]; [3] | [1]; [4] | [1]; [5] | [2]

Cc1cnc(C2=Cc3ccc(-c4cccnc4)cc3N(Cc3ccc(C)c(F)c3)C(=O)C2)o1 [Compound 23, 1-(3-fluoro-4-methylbenzyl)-4-(5-methyloxazol-2-yl)-8-(pyridin-3-yl)-1,3-dihydro-2H-benzo[b]azepin-2-one]
0.001 to 1 µM: [1]; [3] | [1]; [4] | [1]; [5] | [2]

COc1ccc(CN2C(=O)CC(c3ncc(C)o3)=Cc3ccccc32)cc1 [Compound 24, 1-(4-methoxybenzyl)-4-(5-methyloxazol-2-yl)-1,3-dihydro-2H-benzo[b]azepin-2-one]
0.001 to 1 µM: [1]; [3] | [1]; [4] | [1]; [5] | [2]

COc1ccc(CN2C(=O)CC(c3ncc(C)o3)=Cc3ccc(Br)cc32)cc1 [Compound 25, 8-bromo-1-(4-methoxybenzyl)-4-(5-methyloxazol-2-yl)-1,3-dihydro-2H-benzo[b]azepin-2-one]
0.001 to 1 µM: [1]; [3] | [1]; [4] | [1]; [5] | [2]

COc1ccc(CN2C(=O)CC(c3ncc(C)o3)=Cc3ccc(N)cc32)cc1 [Compound 26, 8-amino-1-(4-methoxybenzyl)-4-(5-methyloxazol-2-yl)-1,3-dihydro-2H-benzo[b]azepin-2-one]
0.001 to 1 µM: [1]; [3] | [1]; [4] | [1]; [5] | [2]

COc1ccc(CN2C(=O)CC(c3ncc(C)o3)=Cc3ccc(O)cc32)cc1 [Compound 27, 8-hydroxy-1-(4-methoxybenzyl)-4-(5-methyloxazol-2-yl)-1,3-dihydro-2H-benzo[b]azepin-2-one]
0.001 to 1 µM: [1]; [3] | [1]; [4] | [1]; [5] | [2]

COc1ccc(CN2C(=O)CC(c3ncc(C)o3)=Cc3ccc(-c4ccsc4)cc32)cc1 [Compound 28, 1-(4-methoxybenzyl)-4-(5-methyloxazol-2-yl)-8-(thiophen-3-yl)-1,3-dihydro-2H-benzo[b]azepin-2-one]
0.001 to 1 µM: [1]; [3] | [1]; [4] | [1]; [5] | [2]

COc1ccc(CN2C(=O)CC(c3ncc(C)o3)=Cc3ccc(-c4ccoc4)cc32)cc1 [Compound 29, 8-(furan-3-yl)-1-(4-methoxybenzyl)-4-(5-methyloxazol-2-yl)-1,3-dihydro-2H-benzo[b]azepin-2-one]
0.001 to 1 µM: [1]; [3] | [1]; [4] | [1]; [5] | [2]

COc1ccc(CN2C(=O)CC(c3ncc(C)o3)=Cc3ccc(-c4cnn(C)c4)cc32)cc1 [Compound 30, 1-(4-methoxybenzyl)-8-(1-methyl-1H-pyrazol-4-yl)-4-(5-methyloxazol-2-yl)-1,3-dihydro-2H-benzo[b]azepin-2-one]
0.001 to 1 µM: [1]; [3] | [1]; [4] | [1]; [5] | [2]

COc1ccc(CN2C(=O)CC(c3ncc(C)o3)=Cc3ccc(-c4ccn(C)n4)cc32)cc1 [Compound 31, 1-(4-methoxybenzyl)-8-(1-methyl-1H-pyrazol-3-yl)-4-(5-methyloxazol-2-yl)-1,3-dihydro-2H-benzo[b]azepin-2-one]
0.001 to 1 µM: [1]; [3] | [1]; [4] | [1]; [5] | [2]

COc1ccc(CN2C(=O)CC(c3ncc(C)o3)=Cc3ccc(-c4cncn4C)cc32)cc1 [Compound 32, 1-(4-methoxybenzyl)-8-(1-methyl-1H-imidazol-5-yl)-4-(5-methyloxazol-2-yl)-1,3-dihydro-2H-benzo[b]azepin-2-one]
0.001 to 1 µM: [1]; [3] | [1]; [4] | [1]; [5] | [2]

COc1ccc(CN2C(=O)CC(c3ncc(C)o3)=Cc3ccc(-c4cn[nH]c4)cc32)cc1 [Compound 33, 1-(4-methoxybenzyl)-4-(5-methyloxazol-2-yl)-8-(1H-pyrazol-4-yl)-1,3-dihydro-2H-benzo[b]azepin-2-one]
0.001 to 1 µM: [1]; [3] | [1]; [4] | [1]; [5] | [2]

COc1ccc(CN2C(=O)CC(c3ncc(C)o3)=Cc3ccc(-c4cnn(C5CC5)c4)cc32)cc1 [Compound 34, 8-(1-cyclopropyl-1H-pyrazol-4-yl)-1-(4-methoxybenzyl)-4-(5-methyloxazol-2-yl)-1,3-dihydro-2H-benzo[b]azepin-2-one]
0.001 to 1 µM: [1]; [3] | [1]; [4] | [1]; [5] | [2]

COc1ccc(CN2C(=O)CC(c3ncc(C)o3)=Cc3ccc(-c4cnn(C5CCNCC5)c4)cc32)cc1 [Compound 35, 1-(4-methoxybenzyl)-4-(5-methyloxazol-2-yl)-8-(1-(piperidin-4-yl)-1H-pyrazol-4-yl)-1,3-dihydro-2H-benzo[b]azepin-2-one]
0.001 to 1 µM: [1]; [3] | [1]; [4] | [1]; [5] | [2]

COc1ccc(CN2C(=O)CC(c3ncc(C)o3)=Cc3ccc(-c4cccnc4)cc32)cc1 [Compound 39, 1-(4-methoxybenzyl)-4-(5-methyloxazol-2-yl)-8-(pyridin-3-yl)-1,3-dihydro-2H-benzo[b]azepin-2-one]
0.001 to 1 µM: [1]; [3] | [1]; [4] | [1]; [5] | [2]

COc1ccc(CN2C(=O)CC(c3ncc(C)o3)=Cc3ccc(-c4ccncc4)cc32)cc1 [Compound 40, 1-(4-methoxybenzyl)-4-(5-methyloxazol-2-yl)-8-(pyridin-4-yl)-1,3-dihydro-2H-benzo[b]azepin-2-one]
0.001 to 1 µM: [1]; [3] | [1]; [4] | [1]; [5] | [2]

COc1ccc(CN2C(=O)CC(c3ncc(C)o3)=Cc3ccc(-c4ccc(F)nc4)cc32)cc1 [Compound 41, 8-(6-fluoropyridin-3-yl)-1-(4-methoxybenzyl)-4-(5-methyloxazol-2-yl)-1,3-dihydro-2H-benzo[b]azepin-2-one]
0.001 to 1 µM: [1]; [3] | [1]; [4] | [1]; [5] | [2]

COc1ccc(CN2C(=O)CC(c3ncc(C)o3)=Cc3ccc(-c4ccc(C5CC5)nc4)cc32)cc1 [Compound 43, 8-(6-cyclopropylpyridin-3-yl)-1-(4-methoxybenzyl)-4-(5-methyloxazol-2-yl)-1,3-dihydro-2H-benzo[b]azepin-2-one]
0.001 to 1 µM: [1]; [3] | [1]; [4] | [1]; [5] | [2]
